US20230148450A9, “BICYCLIC HETEROARYL COMPOUNDS AND USES THEREOF” (Revolution Medicines, Inc., priority 2019, published 2023)

target: T1, SOS1-mediated exchange of KRAS-4B:GDP to KRAS-4B:GTP (Homo sapiens, UniProt Q07889); assay: Bodipy-FL-GTP Association Assay; format: biochemical; conditions: SOS1 GEF activity on KRAS-4B, 22° C.
T1 construct: SOS1 (Cytoskeleton Inc., Cat. CS-GE02); purchased Cytoskeleton Inc. CS-GE02 (SOS1); CSRS03 (KRAS4-B)
T1 sequence (Q07889 564-1049 limits assumed): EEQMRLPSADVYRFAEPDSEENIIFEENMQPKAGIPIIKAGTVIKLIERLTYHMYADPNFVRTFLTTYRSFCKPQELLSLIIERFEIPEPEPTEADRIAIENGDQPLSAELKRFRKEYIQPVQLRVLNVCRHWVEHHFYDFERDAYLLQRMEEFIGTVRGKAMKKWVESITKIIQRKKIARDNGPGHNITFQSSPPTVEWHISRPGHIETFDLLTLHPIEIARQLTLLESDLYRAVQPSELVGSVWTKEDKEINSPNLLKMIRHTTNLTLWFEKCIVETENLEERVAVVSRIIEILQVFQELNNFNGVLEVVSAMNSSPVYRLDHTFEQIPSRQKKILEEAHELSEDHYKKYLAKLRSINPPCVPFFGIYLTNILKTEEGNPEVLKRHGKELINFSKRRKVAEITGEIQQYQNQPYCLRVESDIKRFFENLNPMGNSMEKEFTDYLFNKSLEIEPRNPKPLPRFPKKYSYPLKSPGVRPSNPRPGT
Description: A low IC50 value for a given compound is indicative of high potency of said compound in inhibiting the guanine nucleotide exchange factor (GEF) activity of SOS1 on KRAS-4B in this assay setting. Reagents: BODIPY FL GTP (ThermoFisher Scientific, Cat. G12411); KRAS4-B (Cytoskeleton Inc., Cat. CSRS03); SOS1 (Cytoskeleton Inc., Cat. CS-GE02); 2× Assay Buffer: 40 mM Tris-HCl, pH 7.5; 100 mM NaCl; 20 mM MgCl2; 0.1 mg/mL BSA; 0.02% NP-40 Assay Procedure: Test compounds were dissolved in DMSO to create 20 mM master stocks. The stocks were diluted in a 3× dilution series in 100% DMSO to achieve 100× compound stocks. A 1 μl spot of each test compound stock was delivered to two adjacent wells of a 96-well assay plate prior to running the assay. Reaction Mix preparation: The following were mixed in order at room temperature to obtain the “Reaction Mix” (5.75 mL 2× Exchange Buffer; 3.22 mL MilliQ ddH2O; 3 μL 5 mM BODIPY FL GTP; 230 μL 50 μM KRAS-4B; 9.203 mL Total volume. Reaction initiation: 80 μL of Reaction Mix was pipetted into each well of a half-area black 96-well plate (Corning, Cat. 3686) containing either a 1 μL spot of DMSO or a 1 μL spot test compound at the concentrations listed above. 20 μL of 1 μM SOS1 was then added to each well to initiate the reaction. For the no GEF control wells this was replaced with 1× exchange buffer. Kinetic measurement: The reaction was monitored in a SpectraMax M2 Microplate Reader (Molecular Devices) under the following protocol: 5 second rapid circular mixing before first read; 61 readings, 30 seconds apart; Assay temperature: 22° C.; Excitation wavelength: 485 nm; Emission wavelength: 513 nm. Data Analysis: The V max values for the SOS1-mediated BODIPY FL GTP exchange curves in the presence of test compounds were normalized to the most dilute test sample columns or DMSO only control wells to give the % Activity for each concentration of test compound. Plots of % Activity vs. the Log10 of the compound concentration were fit by non-linear regression to a 4-parameter logistic model.

SMILES	IC50 [µM]
C[C@@H](Nc1nccn2cc(C(=O)N3CCN(C)CC3)nc12)c1cc(N)cc(C(F)(F)F)c1 [Example 10, N-[(1R)-1-[3-amino-5-(trifluoromethyl)phenyl]ethyl]-2-(4-methylpiperazine-1-carbonyl)imidazo[1,2-a]pyrazin-8-amine]	1 to 5
C[C@@H](Nc1ncnn2cc(C3CCNCC3)cc12)c1cc(N)cc(C(F)(F)F)c1 [Example 11, N-[(1R)-1-[3-amino-5-(trifluoromethyl)phenyl]ethyl]-6-(piperidin-4-yl)pyrrolo[2,1-f][1,2,4]triazin-4-amine]	< 1
C[C@@H](Nc1ncnn2cc(C3=CCNCC3)cc12)c1cc(N)cc(C(F)(F)F)c1 [Example 12, N-[(1R)-1-[3-amino-5-(trifluoromethyl)phenyl]ethyl]-6-(1,2,3,6-tetrahydropyridin-4-yl)pyrrolo[2,1-f][1,2,4]triazin-4-amine]	< 1
CC(=O)N1CC=C(c2cc3c(N[C@H](C)c4cc(N)cc(C(F)(F)F)c4)ncnn3c2)CC1 [Example 13, 1-[4-[4-[[(1R)-1-[3-amino-5-(trifluoromethyl)phenyl]ethyl]amino]pyrrolo[2,1-f][1,2,4]triazin-6-yl]-3,6-dihydro-2H-pyridin-1-yl]ethanone]	1 to 5
C[C@@H](Nc1ncnn2cc(C3=CCNCC3)cc12)c1cccc(C(F)(F)F)c1 [Example 14]	1 to 5
CC(=O)N1CC=C(c2cc3c(N[C@H](C)c4cccc(C(F)(F)F)c4)ncnn3c2)CC1 [Example 15]	> 5
C[C@@H](Nc1ncnn2cc(C(=O)N3CCOCC3)cc12)c1cc(N)cc(C(F)(F)F)c1 [Example 16]	> 5
C[C@@H](Nc1nccn2cc(C(=O)NC[C@H]3CCOC3)nc12)c1cccc(C(F)(F)F)c1 [Example 17]	> 5
C[C@@H](Nc1nccn2cc(C(=O)N3CCN(C)CC3)nc12)c1cccc(C(F)(F)F)c1 [Example 18]	> 5
Cc1nc(N[C@H](C)c2cccc(C(F)(F)F)c2)c2cc(C3=CCNCC3)cn2n1 [Example 19]	> 5
C[C@@H](Nc1nc(C2CC2)nn2cc(C3=CCNCC3)cc12)c1cccc(C(F)(F)F)c1 [Example 20]	> 5
COc1nc(N[C@H](C)c2cccc(C(F)(F)F)c2)c2cc(C3=CCNCC3)cn2n1 [Example 21]	1 to 5
COCC(=O)N1CC=C(c2cnc3c(N[C@H](C)c4cccc(C(F)(F)F)c4)nccn23)CC1 [Example 22]	> 5
C[C@@H](NC1=NC=NC2SC(C3(O)CCC(C(=O)N(C)C)CC3)=CC12)c1cc(N)cc(C(F)(F)F)c1 (stereo partly drawn) [Example 23]	< 1
Cc1cn2nc(C(=O)N3CCOCC3)cc2c(N[C@H](C)c2cccc(C(F)(F)F)c2)n1 [Example 24]	> 5
Cc1cn2nc(C(=O)N3CCN(C)CC3)cc2c(N[C@H](C)c2cccc(C(F)(F)F)c2)n1 [Example 25]	> 5
Cc1nc(N[C@H](C)c2cc(N)cc(C(F)(F)F)c2)c2cc(C3=CCNCC3)sc2n1 [Example 26]	1 to 5
CC(=O)N1CCN(c2cc3c(N[C@H](C)c4cccc(C(F)(F)F)c4)ncnn3c2)CC1 [Example 27]	< 1
